Measured values as given in US11464793B2, “Nutritional formulations including human milk oligosaccharides and antioxidants and uses thereof” (priority 2010, dated 2022).

Columns and labels:
[1] = tested on: respiratory syncytial virus (RSV); experiment: In vitro inhibition of viral infectivity by purified HMOs (Example 36), RSV; type: cell-based; details: co-incubation of virus (about 500 to 1,000 units/mL) with HMO at 1 or 10 mg/mL
Experimental: In this Example, the effect of purified human milk oligosaccharides (HMO) on in vitro inhibition of viral infectivity is analyzed.
Samples are prepared by co-incubation of a uniform virus dose of from about 500 units/mL to about 1,000 units/mL of one of three respiratory viruses: (1) respiratory syncytial virus (RSV); (2) human parainfluenza virus (HPIV3); or (3) H1N1 influenza virus with one of the following HMOs: (1) 3′-sialyllactose (3′SL); (2) 6′-sialyllactose (6′SL); (3) 3′-fucosyllactose (3′FL); (4) 2′-fucosyllactose (2′FL); (5) lacto-N-neotetraose (LNnT); or (6) sialic acid (SA). The HMOs are added at concentrations of either 1 mg/mL or 10 mg/mL.

interleukin 10 (IL-10) = experiment: IL-10 in supernatants of peripheral blood mononuclear cells with or without RSV (Example 39); type: cell-based, human; details: in the presence or absence of RSV; FIGS. 7-10
Experimental: Specifically, either 3′SL or 6′SL is added, at concentrations of 0.1 mg/mL, 0.2 mg/mL, or 0.5 mg/mL to fresh peripheral blood mononuclear cells and incubated at 37° C. in 5% CO2 to pretreat the cells for approximately 24 hours. LNnT is added, at concentrations of 0.1 mg/mL, 0.2 mg/mL, or 1 mg/mL to fresh peripheral blood mononuclear cells and incubated at 37° C. in 5% CO2 to pretreat the cells for approximately 24 hours. Lactose is included as a carbohydrate control. Matched endotoxin unit concentration controls are included to allow differentiation of ingredient effects from inherent low levels of endotoxin. Some variables are then incubated with RSV at a multiplicity of infection (MOI) of 0.1 for approximately 1 hour at 37° C. in 5% in CO2. Uninfected control variables are incubated with medium for approximately 1 hour at 37° C. in 5% CO2. […]
Cytokines are measured in supernatants for each variable at 24 and 48 hours to assess the effects of HMOs on the early immune response to RSV. Cytokines are measured using custom Bio-Plex Human cytokine kits from Bio-Rad. […] A positive con-elation exists between RSV clinical disease severity in children (as measured by: length of hospital stay, fever, and number of days supplemental O2 is required) and serum IP-10. […]

H1N1 influenza virus [2] = type: cell-based; details: for IC50 (mg HMO/mL) H1N1 Influenza: co-incubation of virus (about 500 to 1,000 units/mL) with HMO at 1 or 10 mg/mL
[3] = tested on: interferon-inducible protein 10 (IP-10); experiment: IP-10 in supernatants of RSV-infected peripheral blood mononuclear cells pretreated with HMO (Example 39); type: cell-based, human; details: for IP-10 in virus-infected variables: PBMC of two donors, 24 h pretreatment, RSV MOI 0.1, supernatants at 24 and 48 hours, FIGS. 3-6; for IP-10 level reached relative to uninfected controls: RSV-infected PBMC; for dampening of virus-induced inflammation as measured by a decrease in IP-10, comparison: compared with 3′SL; for reduction of inflammation caused by RSV: pretreatment for 24 hours
Experimental: (§1) Specifically, either 3′SL or 6′SL is added, at concentrations of 0.1 mg/mL, 0.2 mg/mL, or 0.5 mg/mL to fresh peripheral blood mononuclear cells and incubated at 37° C. in 5% CO2 to pretreat the cells for approximately 24 hours. LNnT is added, at concentrations of 0.1 mg/mL, 0.2 mg/mL, or 1 mg/mL to fresh peripheral blood mononuclear cells and incubated at 37° C. in 5% CO2 to pretreat the cells for approximately 24 hours. Lactose is included as a carbohydrate control. Matched endotoxin unit concentration controls are included to allow differentiation of ingredient effects from inherent low levels of endotoxin. Some variables are then incubated with RSV at a multiplicity of infection (MOI) of 0.1 for approximately 1 hour at 37° C. in 5% in CO2. Uninfected control variables are incubated with medium for approximately 1 hour at 37° C. in 5% CO2. After approximately one hour, fresh medium alone, or fresh medium containing the appropriate concentration of 3′SL, 6′SL, LNnT, lactose, or endotoxin is added to the appropriate tubes and the cells are incubated for 48 hours at 37° C. in 5% CO2. Supernatants are collected at 24 and 48 hours post-infection.
(§2) Cytokines are measured in supernatants for each variable at 24 and 48 hours to assess the effects of HMOs on the early immune response to RSV. Cytokines are measured using custom Bio-Plex Human cytokine kits from Bio-Rad. Results for interferon-inducible protein 10 (IP-10, also known as CXCL 10) are shown in FIGS. 3 and 4 for 3′SL and 6′SL, and in FIGS. 5 and 6 for LNnT. IP-10 is a CXC chemokine that attracts, binds to and activates the CXCR3 receptor on natural killer cells and memory T cells. IP-10 is expressed by monocytes and a number of other cells, and is induced by interferon. A positive con-elation exists between RSV clinical disease severity in children (as measured by: length of hospital stay, fever, and number of days supplemental O2 is required) and serum IP-10. Therefore, a decrease in IP-10 signals a decrease in severity of RSV disease experienced.

[4] = tested on: monocyte-derived cytokines; experiment: Monocyte-derived cytokines in peripheral blood mononuclear cells with or without RSV (Example 39); type: cell-based, human; details: PBMC
Experimental: as §1, §2

[5] = tested on: human parainfluenza virus (HPIV3); type: cell-based; details: co-incubation of virus (about 500 to 1,000 units/mL) with HMO at 1 or 10 mg/mL
H1N1 influenza virus [6] = experiment: microbe, parasite or virus in culture; type: cell-based; details: HMO at 10 mg/mL, MDCK cells, FIG. 1

| Compound | IC50 (mg HMO/mL) RSV [1] | IL-10 concentration (interleukin 10 (IL-10)) | IC50 (mg HMO/mL) H1N1 Influenza (H1N1 influenza virus [2]) | IP-10 in virus-infected variables [3] | IP-10 level reached relative to uninfected controls [3] | dampening of virus-induced inflammation as measured by a decrease in IP-10, comparison [3] | reduction of inflammation caused by RSV [3] | production of monocyte-derived cytokines (IL-10, MIP-1β, Interferon-γ, IL-8, IL-1α, IL-1β, IL-1ra) [4] | IC50 (mg HMO/mL) HPIV3 [5] | inhibition of H1N1 virus infectivity (H1N1 influenza virus [6]) | inhibition at 10000 µg/mL (H1N1 influenza virus [6]; Influenza A virus, H1N1, read-out: inhibition of H1N1 virus infectivity) | anti-viral activity against H1N1 influenza virus (H1N1 influenza virus [2]; HMO at 1 mg/mL) | RSV-induced IP-10, Donor B ([3]; Donor B, 0.1, 0.2 or 0.5 mg/mL) | RSV-induced IP-10, Donor E ([3]; Donor E, 0.1, 0.2 or 0.5 mg/mL) |
| --- | --- | --- | --- | --- | --- | --- | --- | --- | --- | --- | --- | --- | --- | --- |
| CC(=O)N[C@H]1[C@H](O[C@H]2[C@@H](O)[C@@H](CO)O[C@@H](O[C@H]3[C@H](O)[C@@H](O)C(O)O[C@@H]3CO)[C@@H]2O)O[C@H](CO)[C@@H](O[C@@H]2O[C@H](CO)[C@H](O)[C@H](O)[C@H]2O)[C@@H]1O (mixture of isomers) [LNnT, lacto-N-neotetraose] | >10 mg HMO/mL | increases IL-10 concentration in a dose-dependent manner | >10 mg HMO/mL | clearly downregulates IP-10 | reduce IP-10 to levels found in uninfected controls | more effective than 3′SL | effective in reducing inflammation caused by RSV | immunomodulatory in the presence or absence of the virus | – | – | – | – | – | – |
| CC(=O)N[C@H]1[C@H]([C@H](O)[C@H](O)CO)O[C@@](OC[C@H]2O[C@@H](O[C@H]3[C@H](O)[C@@H](O)[C@H](O)O[C@@H]3CO)[C@H](O)[C@@H](O)[C@H]2O)(C(=O)O)C[C@@H]1O [6′SL, 6′-sialyllactose] | >10 mg HMO/mL | increases interleukin 10 (IL-10) concentration in a dose-dependent manner | ~10 mg HMO/mL | clearly downregulates IP-10 | reduce IP-10 to levels found in uninfected controls | more effective than 3′SL | effective in reducing inflammation caused by RSV | immunomodulatory in the absence of the virus | >10 mg HMO/mL | approximately 60% | – | – | – | – |
| CC(=O)N[C@H]1[C@H]([C@H](O)[C@H](O)CO)OC(O)(C(=O)O)C[C@@H]1O (stereo partly shown) [SA, sialic acid] | – | – | – | – | – | – | – | – | – | – | > 90% | – | – | – |
| CC(=O)N[C@H]1[C@H]([C@H](O)[C@H](O)CO)O[C@@](O[C@H]2[C@@H](O)[C@@H](CO)O[C@@H](O[C@H]3[C@H](O)[C@@H](O)C(O)O[C@@H]3CO)[C@@H]2O)(C(=O)O)C[C@@H]1O (stereo partly shown) [3′SL, 3′-sialyllactose] | >10 mg HMO/mL | – | ~5 mg HMO/mL | dampen RSV-induced IP-10 | – | – | effective in reducing inflammation caused by RSV | immunomodulatory in the presence or absence of the virus | >10 mg HMO/mL | – | – | inhibited | not effective | downregulates RSV-induced IP-10 |
